According to patent publication US20030125363A1, “Riluzole and alpha-tocopherol combination” (priority 1998, published 2003):

Test system: patients suffering from ALS
[1] = after 12 months of treatment, Munsat functional states

Method: The study was carried out in 289 patients in total aged over 18 years, who have been suffering from ALS for less than 5 years and in whom the vital capacity/theoretical normal vital capacity ratio is greater than or equal to 60% (the vital capacity is a routine conventional measurement of the respiratory function also called lung function test).
The patients are divided into 2 groups:
group 1: 145 patients treated with 100 mg/day of riluzole by the oral route and 1000 mg/day of α-tocopherol by the oral route,
group 2: 144 patients treated with 100 mg/day of riluzole by the oral route and placebo.
The patients are monitored for a year. The results are measured on functional scales (Munsat's functional states (RIVIERE et al., Arch. Neurol., 55, 526 (1998)), a visual analog scale (VAS) for fatigability (LACOBLEZ et al., The Lancet, 347, 1425 (1996); BENSIMON et al., New England Journal of Medicine, 330, 585 (1994)) and plasma concentration of malondialdehyde, a biochemical marker for oxidative stress (FAVIER, Analysis of free radicals in biological systems, Birk Hauser, Basel/Switzerland, 1995 p. 100-117).
The Munsat functional state A relates to patients in an average or mild state:
average state: average deficiency in 3 regions (speech, arm and leg), functionally independent in speech, activities of the upper extremities in daily and ambulatory life,
mild state: average deficiency in 3 regions or mild to severe deficiency in one region while the other two regions are normal or slightly affected.
The Munsat functional state B relates to patients in the severe or final state:
severe state: need for assistance in 2 or 3 regions, dysarthric speech and/or patients requiring assistance to walk and/or requiring assistance for the activities of the upper extremities in daily life,
final state: nonfunctional use of at least 2 regions and mild or nonfunctional use of the third region.
The progression of the functional states A and B is determined at the time of inclusion (M0) and after 12 months of treatment (M12).

SMILES: Nc1nc2ccc(OC(F)(F)F)cc2s1 [RILUZOLE AND PLACEBO, 2-amino-6-trifluoromethoxybenzothiazole]
- Condition after treatment (M12): state A (Munsat functional state A (average or mild), after 12 months of treatment, riluzole 100 mg/day oral, α-tocopherol 1000 mg/day oral or placebo): 56 number of patients
- Condition on inclusion (M0): state A (Munsat functional state A (average or mild), baseline at inclusion M0, oral treatment): 109 number of patients
- Condition after treatment (M12): state B (Munsat functional state B (severe or final), after 12 months of treatment, riluzole 100 mg/day oral, α-tocopherol 1000 mg/day oral or placebo): 63 number of patients
- Condition on inclusion (M0): state B (Munsat functional state B (severe or final), baseline at inclusion M0, oral treatment): 10 number of patients
- patients who did not exhibit any change [1]: 66 patients
- patients who did not exhibit any change (percent) [1]: 55.3%
- patients who exhibited a worsening of the disease [1]: 53 patients
- patients who exhibited a worsening of the disease (percent) [1]: 44.5%
